Earlier results as cited in US8815282B1, “Commercial method for production of room temperature-liquid cetyl myristoleate” (priority 2005, dated 2014).

Tested on: arthritis in mice
Conditions: pure CMO, Pharmacological Research 47 (2003) 43-47

In the case of CCCC/C=C\CCCCCCCC(=O)OCCCCCCCCCCCCCCCC [CMO, cetyl myristoleate], the “incidence and severity of arthritis” value is given as “significant reduction in the incidence and severity of arthritis”.
